Experimental data taken from patent US9663478B2, “Benzotriazine oxides as drugs targeting Mycobacterium tuberculosis” (priority 2011, dated 2017).
Values after ≈ are worked out from the molar mass of the structure shown. Read-outs that look alike come from different tables or passages of the source.

Columns and labels:
Assay in all cases: microbe, parasite or virus in culture
Assay type in all cases: cell-based, Mycobacterium tuberculosis
[1] = system: Mtb strain resistant to Streptomycin ATCC 35820; details: for MIC: Mycobacterium tuberculosis
[2] = system: Mtb strain resistant to P-aminosalicyclic acid ATCC 35821; details: for MIC: Mycobacterium tuberculosis; for MIC, Mtb strain resistant to P-aminosalicyclic acid ATCC 35821: Table 5
[3] = system: Mtb strain resistant to Isoniazid ATCC 35822; details: for MIC: Mycobacterium tuberculosis
[4] = system: Mtb strain resistant to Kanamycin ATCC 35827; details: for MIC: Mycobacterium tuberculosis
[5] = system: Mtb strain resistant to Ethionamide ATCC 35830; details: for MIC: Mycobacterium tuberculosis; for MIC, Mtb strain resistant to Ethionamide ATCC 35830: Table 5
[6] = system: Mtb strain resistant to Ethambutol ATCC 35837; details: for MIC: Mycobacterium tuberculosis; for MIC, Mtb strain resistant to Ethambutol ATCC 35837: Table 5
[7] = ATCC35820, read-out: Activity against Mtb strain resistant to Streptomycin ATCC 35820
[8] = ATCC35821, read-out: Activity against Mtb strain resistant to P-aminosalicyclic acid ATCC 35821
[9] = ATCC35822, read-out: Activity against Mtb strain resistant to Isoniazid ATCC 35822
[10] = ATCC35827, read-out: Activity against Mtb strain resistant to Kanamycin ATCC 35827
[11] = ATCC35830, read-out: Activity against Mtb strain resistant to Ethionamide ATCC 35830
[12] = ATCC35837, read-out: Activity against Mtb strain resistant to Ethambutol ATCC 35837
[13] = ATCC35820, 168 h, read-out: MIC, Mtb strain resistant to Streptomycin ATCC 35820
[14] = ATCC35821, read-out: MIC, Mtb strain resistant to P-aminosalicyclic acid ATCC 35821
[15] = ATCC35822, 168 h, read-out: MIC, Mtb strain resistant to Isoniazid ATCC 35822
[16] = ATCC35827, 168 h, read-out: MIC, Mtb strain resistant to Kanamycin ATCC 35827
[17] = ATCC35830, read-out: MIC, Mtb strain resistant to Ethionamide ATCC 35830
[18] = ATCC35837, read-out: MIC, Mtb strain resistant to Ethambutol ATCC 35837

Row | SMILES | MIC [1, 7] [µg/mL] | MIC [2, 8] [µg/mL] | MIC [3, 9] [µg/mL] | MIC [4, 10] [µg/mL] | MIC [5, 11] [µg/mL] | MIC [1, 13] [µg/mL] | MIC [2, 14] [µg/mL] | MIC [5, 17] [µg/mL] | MIC [6, 18] [µg/mL] | also measured
1 | CCN(CC)c1n[n+]([O-])c2ccccc2[n+]1[O-] [SRI-009728] | 0.31 (≈ 1.32 µM) | 0.31 (≈ 1.32 µM) | 0.31 (≈ 1.32 µM) | 0.31 (≈ 1.32 µM) | 0.16 (≈ 0.683 µM) |  |  |  |  | MIC [6, 12]: 0.31 µg/mL (≈ 1.32 µM)
2 | [O-][n+]1nc(NC2CCC2)[n+]([O-])c2cc3c(cc21)CCC3 [Compound 15fd, Cyclobutyl-(5,8-dioxy-2,3-dihydro-1H-5,6,8-triaza-cyclopenta[b]naphthalen-7-yl)-amine] |  |  |  |  |  |  |  |  |  | MIC, Mtb strain resistant to Streptomycin ATCC 35820 ([1]; Table 5): 0.31 µg/mL (≈ 1.14 µM); MIC, Mtb strain resistant to P-aminosalicyclic acid ATCC 35821 [2]: 0.62 µg/mL (≈ 2.28 µM); MIC, Mtb strain resistant to Isoniazid ATCC 35822 ([3]; Table 5): 1.2 µg/mL (≈ 4.41 µM); MIC, Mtb strain resistant to Kanamycin ATCC 35827 ([4]; Table 5): 1.2 µg/mL (≈ 4.41 µM); MIC, Mtb strain resistant to Ethionamide ATCC 35830 [5]: 0.62 µg/mL (≈ 2.28 µM); MIC, Mtb strain resistant to Ethambutol ATCC 35837 [6]: 0.62 µg/mL (≈ 2.28 µM)
3 | CCNc1n[n+]([O-])c2cc(C)c(OC)cc2[n+]1[O-] [Compound 15ga, 3-(ethylamino)-6-methoxy-7-methylbenzo[e][1,2,4]triazine 1,4-dioxide] |  |  |  |  |  | 1.2 (≈ 4.8 µM) | 1.2 (≈ 4.8 µM) | 1.2 (≈ 4.8 µM) | 1.2 (≈ 4.8 µM) | MIC [3, 15]: 1.2 µg/mL (≈ 4.8 µM); MIC [4, 16]: 1.2 µg/mL (≈ 4.8 µM)
4 | CC1CCCCN1c1n[n+]([O-])c2cc3c(cc2[n+]1[O-])CCC3 (centres unmarked) [Compound 20w, 3-(2-methylpiperidin-1-yl)-7,8-dihydro-6H-indeno[5,6-e][1,2,4]triazine 1,4-dioxide] |  |  |  |  |  | 0.31 (≈ 1.03 µM) | 0.62 (≈ 2.06 µM) | 0.31 (≈ 1.03 µM) | 0.62 (≈ 2.06 µM) | 
5 | [O-][n+]1nc(NC2CCC2)[n+]([O-])c2cc3c(cc21)CCCC3 [SRI-012497] | 1.25 (≈ 4.37 µM) | 1.25 (≈ 4.37 µM) | 2.5 (≈ 8.73 µM) | 2.5 (≈ 8.73 µM) | 1.25 (≈ 4.37 µM) |  |  |  |  | MIC [6, 12]: 2.5 µg/mL (≈ 8.73 µM)
6 | CCNc1n[n+]([O-])c2cc3c(cc2[n+]1[O-])CCC3 [Compound 15fa, 3-(ethylamino)-7,8-dihydro-6H-indeno[5,6-e][1,2,4]triazine 1,4-dioxide] |  |  |  |  |  | 0.63 (≈ 2.56 µM) | 1.2 (≈ 4.87 µM) | 1.2 (≈ 4.87 µM) | 1.2 (≈ 4.87 µM) | MIC [3, 15]: 2.5 µg/mL (≈ 10.2 µM); MIC [4, 16]: 1.2 µg/mL (≈ 4.87 µM)
7 | CN(CCc1ccccc1)c1n[n+]([O-])c2cc3c(cc2[n+]1[O-])CCC3 [Compound 20u, 3-(methyl(phenethyl)amino)-7,8-dihydro-6H-indeno[5,6-e][1,2,4]triazine 1,4-dioxide] |  |  |  |  |  | < 0.07 | 0.15 (≈ 0.446 µM) | 0.15 (≈ 0.446 µM) | 0.31 (≈ 0.922 µM) | 
8 | [O-][n+]1nc(N2CCCC2)[n+]([O-])c2cc3c(cc21)CCC3 [Compound 20q, 3-(pyrrolidin-1-yl)-7,8-dihydro-6H-indeno[5,6-e][1,2,4]triazine 1,4-dioxide] |  |  |  |  |  |  |  |  |  | MIC ([1]; ATCC35820, 168 h, Table 5, read-out: MIC, Mtb strain resistant to Streptomycin ATCC 35820): 0.16 µg/mL (≈ 0.588 µM); MIC ([3]; ATCC35822, 168 h, Table 5, read-out: MIC, Mtb strain resistant to Isoniazid ATCC 35822): 0.31 µg/mL (≈ 1.14 µM); MIC ([4]; ATCC35827, 168 h, Table 5, read-out: MIC, Mtb strain resistant to Kanamycin ATCC 35827): 0.63 µg/mL (≈ 2.31 µM)
9 | CN(C)c1n[n+]([O-])c2cc3c(cc2[n+]1[O-])CCC3 [Compound 20s, 3-(dimethylamino)-7,8-dihydro-6H-indeno[5,6-e][1,2,4]triazine 1,4-dioxide] |  |  |  |  |  | < 0.07 | 0.15 (≈ 0.609 µM) | 0.15 (≈ 0.609 µM) | 0.31 (≈ 1.26 µM) | 
10 | CN(CCc1ccccc1)c1n[n+]([O-])c2cc3c(cc2[n+]1[O-])CCC3 [SRI-012565] |  |  | 0.07 (≈ 0.208 µM) | 0.15 (≈ 0.446 µM) |  |  |  |  |  | 
11 | [O-][n+]1nc(NC2CCC2)[n+]([O-])c2cc3c(cc21)CCC3 [SRI-012403] |  |  | 1.25 (≈ 4.59 µM) | 1.25 (≈ 4.59 µM) |  |  |  |  |  | 
12 | CN(C)c1n[n+]([O-])c2cc3c(cc2[n+]1[O-])CCC3 [SRI-012563] |  |  | < 0.07 | 0.31 (≈ 1.26 µM) |  |  |  |  |  | 
13 | CCNc1n[n+]([O-])c2cc3c(cc2[n+]1[O-])CCC3 [SRI-012286] | 0.63 (≈ 2.56 µM) | 1.25 (≈ 5.08 µM) | 2.5 (≈ 10.2 µM) | 1.25 (≈ 5.08 µM) | 1.25 (≈ 5.08 µM) |  |  |  |  | MIC [6, 12]: 1.25 µg/mL (≈ 5.08 µM)
14 | [O-][n+]1nc(N2CCCC2)[n+]([O-])c2ccccc21 [Compound 17q, 3-(pyrrolidin-1-yl)benzo[e][1,2,4]triazine 1,4-dioxide] |  |  |  |  |  | 0.02 (≈ 0.0861 µM) | 0.62 (≈ 2.67 µM) | 0.31 (≈ 1.33 µM) | 0.31 (≈ 1.33 µM) | 
15 | CN(Cc1ccccc1)c1n[n+]([O-])c2cc3c(cc2[n+]1[O-])CCC3 [Compound 20t, 3-(benzyl(methyl)amino)-7,8-dihydro-6H-indeno[5,6-e][1,2,4]triazine 1,4-dioxide] |  |  |  |  |  | < 0.07 | 0.07 (≈ 0.217 µM) | 0.07 (≈ 0.217 µM) | 0.15 (≈ 0.465 µM) | 
16 | CCNc1n[n+]([O-])c2cc3c(cc2[n+]1[O-])CCCC3 [SRI-012496] | 1.25 (≈ 4.8 µM) | 1.25 (≈ 4.8 µM) | 1.25 (≈ 4.8 µM) | 1.25 (≈ 4.8 µM) | 1.25 (≈ 4.8 µM) |  |  |  |  | MIC [6, 12]: 1.25 µg/mL (≈ 4.8 µM)
17 | CS(=O)(=O)N1CCN(c2n[n+]([O-])c3cc4c(cc3[n+]2[O-])CCC4)CC1 [SRI-012568] | 2.5 (≈ 6.84 µM) | 2.5 (≈ 6.84 µM) | 2.5 (≈ 6.84 µM) | 2.5 (≈ 6.84 µM) | 0.62 (≈ 1.7 µM) |  |  |  |  | MIC [6, 12]: 2.5 µg/mL (≈ 6.84 µM)
18 | CN(Cc1ccccc1)c1n[n+]([O-])c2cc3c(cc2[n+]1[O-])CCC3 [SRI-012564] |  |  | < 0.07 | 0.15 (≈ 0.465 µM) |  |  |  |  |  | 
19 | [O-][n+]1nc(N2CCCC2)[n+]([O-])c2ccccc21 [SRI-012495] |  |  | 0.31 (≈ 1.33 µM) | 0.31 (≈ 1.33 µM) |  |  |  |  |  | 
20 | CCNc1n[n+]([O-])c2cccc(C)c2[n+]1[O-] [Compound 15ea, Ethyl-(5-methyl-1,4-dioxy-benzo[1,2,4]triazin-3-yl)-amine] |  |  |  |  |  |  |  |  |  | MIC, Mtb strain resistant to Streptomycin ATCC 35820 ([1]; Table 5): 0.16 µg/mL (≈ 0.727 µM); MIC, Mtb strain resistant to P-aminosalicyclic acid ATCC 35821 [2]: 0.31 µg/mL (≈ 1.41 µM); MIC, Mtb strain resistant to Isoniazid ATCC 35822 ([3]; Table 5): 0.62 µg/mL (≈ 2.82 µM); MIC, Mtb strain resistant to Kanamycin ATCC 35827 ([4]; Table 5): 0.62 µg/mL (≈ 2.82 µM); MIC, Mtb strain resistant to Ethionamide ATCC 35830 [5]: 0.31 µg/mL (≈ 1.41 µM); MIC, Mtb strain resistant to Ethambutol ATCC 35837 [6]: 0.62 µg/mL (≈ 2.82 µM)
21 | CC(C)(C)Nc1n[n+]([O-])c2ccccc2[n+]1[O-] [SRI-003356] | 1.25 (≈ 5.34 µM) | 1.25 (≈ 5.34 µM) | 2.5 (≈ 10.7 µM) | 2.5 (≈ 10.7 µM) | 1.25 (≈ 5.34 µM) |  |  |  |  | 
22 | [O-][n+]1nc(NC2CC3CCC2C3)[n+]([O-])c2cc3c(cc21)CCCC3 (centres unmarked) [SRI-012498] | 1.25 (≈ 3.83 µM) | 1.25 (≈ 3.83 µM) | 2.5 (≈ 7.66 µM) | 1.25 (≈ 3.83 µM) | 1.25 (≈ 3.83 µM) |  |  |  |  | MIC [6, 12]: 1.25 µg/mL (≈ 3.83 µM)
23 | CC(C)(C)Nc1n[n+]([O-])c2ccccc2[n+]1[O-] [Compound 8c, 3-(tert-butylamino)benzo[e][1,2,4]triazine 1,4-dioxide] |  |  |  |  |  | 1.2 (≈ 5.12 µM) | 1.2 (≈ 5.12 µM) | 1.2 (≈ 5.12 µM) | 2.5 (≈ 10.7 µM) | 
24 | [O-][n+]1nc(N2CCCCC2)[n+]([O-])c2cc3c(cc21)CCC3 [SRI-012562] |  |  | 0.15 (≈ 0.524 µM) | 0.31 (≈ 1.08 µM) |  |  |  |  |  | 
25 | [O-][n+]1nc(N2CCCC2)[n+]([O-])c2cc3c(cc21)CCC3 [SRI-012530] | 0.16 (≈ 0.588 µM) | 0.31 (≈ 1.14 µM) | 0.31 (≈ 1.14 µM) | 0.63 (≈ 2.31 µM) | 0.62 (≈ 2.28 µM) |  |  |  |  | MIC [6, 12]: 0.62 µg/mL (≈ 2.28 µM)
26 | CC1CCCCN1c1n[n+]([O-])c2cc3c(cc2[n+]1[O-])CCC3 (centres unmarked) [SRI-012567] |  |  | 0.31 (≈ 1.03 µM) | 0.62 (≈ 2.06 µM) |  |  |  |  |  | 
27 | [O-][n+]1nc(N2CCCCC2)[n+]([O-])c2cc3c(cc21)CCC3 [Compound 20r, 3-(piperidin-1-yl)-7,8-dihydro-6H-indeno[5,6-e][1,2,4]triazine 1,4-dioxide] |  |  |  |  |  | 0.15 (≈ 0.524 µM) | 0.31 (≈ 1.08 µM) | 0.31 (≈ 1.08 µM) | 0.31 (≈ 1.08 µM) | 
28 | O=S1(=O)CCN(c2n[n+]([O-])c3cc4c(cc3[n+]2[O-])CCC4)CC1 [SRI-012566] | 2.5 (≈ 7.43 µM) | 2.5 (≈ 7.43 µM) | 2.5 (≈ 7.43 µM) | 2.5 (≈ 7.43 µM) | 0.62 (≈ 1.84 µM) |  |  |  |  | MIC [6, 12]: 2.5 µg/mL (≈ 7.43 µM)
